Results on 10 compounds are retold here after ChEMBL document CHEMBL1201862, “PubChem BioAssay data set” (2004).

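Compound exposure: 48 hours, 5 concentrations, 96-well plates. GI50 = concentration required for 50% inhibition of growth.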 Active and inactive are the calls of the source. No stated cut-off is given here; in the data, active = GI50 up to about 1.1 µM and inactive = higher. Bounds are passed on as bounds.

Holding throughout (assay): NCI tumour cell line growth inhibition, 48 h
The test system of test [1] is 786-0.
Test [2] has as its system COLO 205.
In test [3] the test system is EKVX.
Test [4] deals with NCI-H522.
Test [5] relates to SK-MEL-5.
For test [6], the system named is UACC-62.
The test system of test [7] is A498.
Test [8] concerns TK-10.
In test [9] the test system is CAKI-1.
Test [10] deals with OVCAR-5.
In test [11] the test system is OVCAR-4.
The subject of test [12] is MDA-MB-231.
Test [13] deals with HL-60.
In test [14] the test system is HCT-15.
For test [15], the system named is RXF 393.
Test [16] concerns HCT-116.
Test [17] deals with NCI/ADR-RES.
Test [18] concerns CCRF-CEM.
In test [19] the test system is Hs-578T.
In test [20] the test system is MOLT-4.

`CSC1SCC2C(=O)N(C)C3(CC3C)C(=O)OCC(NC(=O)c3nc4ccccc4cc3O)C(=O)NC(C)C(=O)N(C)C1C(=O)N(C)C1(CC1C)C(=O)OCC(NC(=O)c1nc3ccccc3cc1O)C(=O)NC(C)C(=O)N2C` (configuration not stated): the GI50 in test [1] was < 0.0001 µM (active); in [2], < 0.0001 µM (active); in test [3], 0.1 µM (active); in [4], < 0.01 µM (active); in test [5], < 0.0001 µM (active); in test [6], < 0.0001 µM (active). The GI50 in [7] was < 0.0001 µM (active); in test [8], < 0.0001 µM (active); in test [9] it was 0.000871 µM (active); in test [10] it was < 0.0001 µM (active); in [11] it was < 0.0001 µM (active); in [12], < 0.0001 µM (active). For the same compound, the GI50 in test [13] was < 0.0001 µM (active); in [14] it was 0.0146 µM; in test [15], < 0.0001 µM (active); in test [16], < 0.0001 µM (active); in test [17] it was 0.176 µM (active); in [18] it was < 0.0001 µM (active). Further, the GI50 in test [19] and in test [20] was < 0.0001 µM (active) throughout.
Take `COc1nc2ccc(Cl)c(C(O)c3ccccc3)c2nc1OC` (configuration not stated): the GI50 in [2] is 18.1 µM (inactive); in [3], 18.2 µM (inactive); in test [4], 15.7 µM (inactive); in [5], 15.6 µM (inactive); in [6], 17.1 µM (inactive); in [7], 18.6 µM (inactive). The GI50 is 37.2 µM (inactive) in test [8]; 12.1 µM (inactive) in [9]; 29 µM (inactive) in [10]; 26.6 µM (inactive) in test [11]; 15.4 µM (inactive) in [12]; 19.2 µM (inactive) in [13]. The GI50 in test [14] was 20.6 µM; in [15] it was 14.3 µM (inactive); in test [16], 16.2 µM (inactive); in [17], 20.3 µM (inactive); in test [18], 12.6 µM (inactive); in test [19], 14.9 µM (inactive). The GI50 in test [20] was 17.6 µM (inactive).
For `C[C@]12CC[C@@H]3c4cc(C=O)c(OCc5ccccc5)cc4CC[C@H]3[C@@H]1CCC2OCc1ccccc1` (some centres not stated), the GI50 in test [1] was > 100 µM (inactive); in [2], > 100 µM (inactive); in test [3], > 100 µM (inactive); in test [4], 80 µM (inactive); in test [5], > 100 µM (inactive); in test [6] it was > 100 µM (inactive). For the same compound, the GI50 in test [7], in test [8], in test [9], in test [10], in [11] and in [12] was > 100 µM (inactive) throughout. Also, the GI50 was > 100 µM (inactive) in test [13]; greater than 100 µM in test [14]; > 100 µM (inactive) in test [15]; > 100 µM (inactive) in test [16]; > 100 µM (inactive) in test [17]; > 100 µM (inactive) in [18]. For the same compound, the GI50 in test [19] and in test [20] was > 100 µM (inactive) each time.
For the compound `Cc1ccc(NC(=S)N/N=C(/c2ccccc2)c2ccccn2)cc1`, the GI50 was 0.0284 µM (active) in test [1]; < 0.0166 µM (active) in [2]; 0.0675 µM (active) in test [3]; 1.31 µM (inactive) in [4]; 0.0933 µM (active) in test [5]; 0.304 µM (active) in test [6]. In addition, the GI50 was 0.815 µM (active) in test [7]; 0.0631 µM (active) in [8]; 0.059 µM (active) in [9]; 0.0233 µM (active) in test [10]; 0.241 µM (active) in [11]; < 0.01 µM (active) in test [12]. For the same compound, the GI50 in test [13] is < 0.0121 µM (active); in [14], less than 0.019 µM; in test [15] it was 0.621 µM (active); in [16], < 0.01 µM (active); in [17], 0.0302 µM (active); in test [18], 0.0109 µM (active). Further, the GI50 in test [19] is 13.1 µM (inactive); in test [20] it was < 0.0118 µM (active).
As to `COc1ccc(/C=C/C(=O)c2ccccc2)cc1OC`, the GI50 in test [1] is 4.97 µM (inactive); in test [2] it was 15.9 µM (inactive); in test [3], 14.8 µM (inactive); in test [4] it was 6.85 µM (inactive); in test [5], 16.8 µM (inactive); in [6], 13.4 µM (inactive). For the same compound, the GI50 in [7] was 16.4 µM (inactive); in test [8] it was 17.2 µM (inactive); in [9] it was 15.7 µM (inactive); in test [10], 16.9 µM (inactive); in [11], 16.7 µM (inactive); in test [12], 19.5 µM (inactive). For the same compound, the GI50 in test [13] was 8.89 µM (inactive); in test [14], 7.03 µM; in test [15] it was 14.3 µM (inactive); in [16], 6.38 µM (inactive); in test [17], 21.2 µM (inactive); in [18], 2.53 µM (inactive). Besides, the GI50 in [19] is 25 µM (inactive); in [20], 13.5 µM (inactive).
As for `OC1C=C2C3CN(Cc4cc5c(cc43)OCO5)[C@H]2C[C@@H]1O` (some centres not stated), the GI50 in [1] was 4.12 µM (inactive); in test [2] it was 3.78 µM (inactive); in [3] it was 4.36 µM (inactive); in test [4] it was 7.28 µM (inactive); in [5], 3.32 µM (inactive); in test [6] it was 10.6 µM (inactive). Moreover, the GI50 in [7] is 6.87 µM (inactive); in test [8], 4.13 µM (inactive); in [9], 3.44 µM (inactive); in test [10], 8.39 µM (inactive); in [11], 3.07 µM (inactive); in [12], 18.1 µM (inactive). Also, the GI50 was 2.61 µM (inactive) in [13]; 4.33 µM in test [14]; 2.54 µM (inactive) in [15]; 3.3 µM (inactive) in [16]; 15.7 µM (inactive) in [17]; 2.34 µM (inactive) in [18]. The GI50 was 26.3 µM (inactive) in test [19] and 4.29 µM (inactive) in test [20].
Take `O=C1NC(=S)NC(=O)C1=C(O)Nc1ccccc1`: the GI50 in test [1] is 28.1 µM (inactive); in test [2] it was 27.4 µM (inactive); in test [3] it was 35.7 µM (inactive); in test [4], 21.7 µM (inactive); in [5], 21.5 µM (inactive); in test [6], 19.5 µM (inactive). In addition, the GI50 in test [7] was 28.6 µM (inactive); in [8], 53.6 µM (inactive); in test [9] it was 20.8 µM (inactive); in [10], 47.2 µM (inactive); in test [11], 34.6 µM (inactive); in [12], 31.8 µM (inactive). Also, the GI50 is 28.1 µM (inactive) in [13]; 14.2 µM in [14]; 33.2 µM (inactive) in [15]; 29.1 µM (inactive) in test [16]; 30.5 µM (inactive) in test [17]; 16.4 µM (inactive) in [18]. For the same compound, the GI50 in test [19] is 20.2 µM (inactive); in test [20], 10.3 µM (inactive).
For `COC(=O)C(Cc1ccccc1)NS(=O)(=O)c1ccc(-c2c3nc(c(-c4ccc(S(=O)(=O)NC(Cc5ccccc5)C(=O)OC)cc4)c4ccc([nH]4)c(-c4ccc(S(=O)(=O)NC(Cc5ccccc5)C(=O)OC)cc4)c4nc(c(-c5ccc(S(=O)(=O)NC(Cc6ccccc6)C(=O)OC)cc5)c5ccc2[nH]5)C=C4)C=C3)cc1` (configuration not stated), the GI50 was 53.6 µM (inactive) in test [1]; > 100 µM (inactive) in test [2]; > 100 µM (inactive) in test [3]; > 100 µM (inactive) in [4]; > 100 µM (inactive) in test [5]; > 100 µM (inactive) in test [6]. For the same compound, the GI50 in test [7], in test [8], in [9], in test [10], in test [11] and in [12] was > 100 µM (inactive) in each case. For the same compound, the GI50 in [13] was > 100 µM (inactive); in [14], greater than 100 µM; in test [15] it was 39.4 µM (inactive); in [16] it was > 100 µM (inactive); in test [17], > 100 µM (inactive); in test [18], > 100 µM (inactive). Further, the results for the GI50 in test [19] and in test [20] were 17.1 µM (inactive) and > 100 µM (inactive), respectively.
Consider `C[C@H](CCC(=O)O)[C@H]1CC[C@H]2[C@@H]3C(=O)C[C@@H]4C[C@H](O)CC[C@]4(C)[C@H]3C[C@H](O)[C@]12C`, for which the GI50 in [1], in [2], in test [3], in [4], in test [6] and in test [7] was > 100 µM (inactive) each time. Also, the GI50 in [8], in [9], in [10], in [11], in test [12] and in [13] was > 100 µM (inactive) in each case. For the same compound, the GI50 in test [14] is greater than 100 µM; in [15], > 100 µM (inactive); in test [16], > 100 µM (inactive); in [17] it was > 100 µM (inactive); in test [18], > 100 µM (inactive); in test [19], < 0.01 µM (active). The GI50 in test [20] is > 100 µM (inactive).
Regarding `O=C(Nc1ccc2[nH]c(C(=O)N3CC(CCl)c4c3cc([N+](=O)[O-])c3ccccc43)cc2c1)c1cc2ccccc2o1` (configuration not stated), the GI50 is > 100 µM (inactive) in test [1]; > 58.1 µM (inactive) in test [2]; > 100 µM (inactive) in [3]; > 100 µM (inactive) in test [4]; > 100 µM (inactive) in test [5]; > 100 µM (inactive) in test [6]. The GI50 in [7] is > 57.7 µM (inactive); in test [8], > 54.5 µM (inactive); in test [9] it was > 100 µM (inactive); in test [10] it was > 100 µM (inactive); in test [11], > 100 µM (inactive); in test [12], > 63 µM (inactive). In addition, the GI50 in test [13] is 22.1 µM (inactive); in test [14], greater than 63.4 µM; in test [15] it was > 1100 µM (inactive); in test [16], > 100 µM (inactive); in [17] it was > 50.6 µM (inactive); in [18] it was 46.1 µM (inactive). For the same compound, in test [19], the GI50 is > 100 µM (inactive).
